Experimental data taken from patent US20260262643A1, “HERBICIDAL BENZOXAZINES” (FMC CORPORATION, priority 2022, published 2026).

Key:
[1] = tested on: barnyardgrass; experiment: Test C preemergence; format: in vivo, Echinochloa crusgalli; conditions: for Plant response rating, Barnyardgrass: Preemergence; for Barnyardgrass plant response rating: Test C, preemergence, 125 g ai/ha
In short: (§1)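 Pre: seeds in loam/sand, directed soil spray. Post: 1–2 leaf plants, 2–10 cm. Cmpd in non-phytotoxic solvent + surfactant. Greenhouse 10 d; visual rating vs untreated, 0 = none, 100 = complete control.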

[2] = tested on: blackgrass; experiment: Test C preemergence; format: in vivo, Alopecurus myosuroides; conditions: for Plant response rating, Blackgrass: Preemergence; for Blackgrass plant response rating: Test C, preemergence, 125 g ai/ha
In short: as §1

[3] = tested on: corn; experiment: Test C preemergence; format: in vivo, Zea mays; conditions: for Plant response rating, Corn: Preemergence; for Corn plant response rating: Test C, preemergence, 125 g ai/ha
In short: as §1

[4] = tested on: green foxtail; experiment: Test C preemergence; format: in vivo, Setaria viridis; conditions: for Plant response rating, Foxtail, Green: Preemergence; for Foxtail, Green plant response rating: Test C, preemergence, 125 g ai/ha
In short: as §1

[5] = tested on: kochia; experiment: Test C preemergence; format: in vivo, Bassia scoparia; conditions: for Plant response rating, Kochia: Preemergence; for Kochia plant response rating: Test C, preemergence, 125 g ai/ha
In short: as §1

[6] = tested on: oat, wild; experiment: Test C preemergence; format: in vivo, Avena fatua; conditions: for Plant response rating, Oat, Wild: Preemergence; for Oat, Wild plant response rating: Test C, preemergence, 125 g ai/ha
In short: as §1

[7] = tested on: pigweed, palmer; experiment: Test C preemergence; format: in vivo, Amaranthus palmeri; conditions: for Plant response rating, Pigweed, Palmer: Preemergence; for Pigweed, Palmer plant response rating: Test C, preemergence, 125 g ai/ha
In short: as §1

[8] = tested on: ragweed; experiment: Test C preemergence; format: in vivo, Ambrosia artemisiifolia; conditions: for Plant response rating, Ragweed: Preemergence; for Ragweed plant response rating: Test C, preemergence, 125 g ai/ha
In short: as §1

[9] = tested on: soybean; experiment: Test C preemergence; format: in vivo, Glycine max; conditions: for Plant response rating, Soybean: Preemergence; for Soybean plant response rating: Test C, preemergence, 125 g ai/ha
In short: as §1

[10] = tested on: wheat; experiment: Test C preemergence; format: in vivo, Triticum aestivum; conditions: for Plant response rating, Wheat: Preemergence; for Wheat plant response rating: Test C, preemergence, 125 g ai/ha
In short: as §1

[11] = tested on: barnyardgrass; experiment: Test C postemergence; format: in vivo, Echinochloa crusgalli; conditions: 10 days
In short: as §1

[12] = tested on: blackgrass; experiment: Test C postemergence; format: in vivo, Alopecurus myosuroides; conditions: 10 days
In short: as §1

[13] = tested on: corn; experiment: Test C postemergence; format: in vivo, Zea mays; conditions: 10 days
In short: as §1

[14] = tested on: green foxtail; experiment: Test C postemergence; format: in vivo, Setaria viridis; conditions: 10 days
In short: as §1

[15] = tested on: kochia; experiment: Test C postemergence; format: in vivo, Bassia scoparia; conditions: 10 days
In short: as §1

[16] = tested on: oat, wild; experiment: Test C postemergence; format: in vivo, Avena fatua; conditions: 10 days
In short: as §1

[17] = tested on: pigweed, palmer; experiment: Test C postemergence; format: in vivo, Amaranthus palmeri; conditions: 10 days
In short: as §1

[18] = tested on: ragweed; experiment: Test C postemergence; format: in vivo, Ambrosia artemisiifolia; conditions: 10 days
In short: as §1

[19] = tested on: ryegrass, Italian; experiment: Test C postemergence; format: in vivo, Lolium multiflorum; conditions: 10 days
In short: as §1

[20] = tested on: soybean; experiment: Test C postemergence; format: in vivo, Glycine max; conditions: 10 days
In short: as §1

[21] = tested on: wheat; experiment: Test C postemergence; format: in vivo, Triticum aestivum; conditions: 10 days
In short: as §1

[22] = tested on: galium; experiment: Test C postemergence; format: in vivo, Galium aparine; conditions: 10 days
In short: as §1

[23] = tested on: horseweed; experiment: Test C postemergence; format: in vivo, Erigeron canadensis; conditions: 10 days
In short: as §1

[24] = tested on: barnyardgrass; experiment: Test D flooded paddy test; format: in vivo, Echinochloa crus-galli; conditions: 250 g ai/ha, applied to paddy water, visual rating after 13 to 14 days, scale 0 to 100 (0 no effect, 100 complete control)
In short: (§2)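 Plants at the 2-leaf stage were grown in pots flooded to 3 cm, and compound was applied directly into the paddy water, with depth kept throughout. After 13–14 days in a greenhouse, injury was rated visually against untreated controls on a 0–100 scale (100 = complete control); a dash means not tested.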

[25] = tested on: ducksalad; experiment: Test D flooded paddy test; format: in vivo, Heteranthera limosa; conditions: 250 g ai/ha, applied to paddy water, visual rating after 13 to 14 days, scale 0 to 100 (0 no effect, 100 complete control)
In short: as §2

[26] = tested on: rice; experiment: Test D flooded paddy test; format: in vivo, Oryza sativa; conditions: 250 g ai/ha, applied to paddy water, visual rating after 13 to 14 days, scale 0 to 100 (0 no effect, 100 complete control)
In short: as §2

[27] = tested on: sedge, umbrella; experiment: Test D flooded paddy test; format: in vivo, Cyperus difformis; conditions: 250 g ai/ha, applied to paddy water, visual rating after 13 to 14 days, scale 0 to 100 (0 no effect, 100 complete control)
In short: as §2

[28] = 31 g ai/ha, 0 to 100 scale, 0 no effect, 100 complete control
[29] = 0 to 100 scale (0 no effect, 100 complete control)
[30] = 125 g ai/ha, postemergence, 0 to 100 scale, 0 no effect, 100 complete control
[31] = Postemergence, 31 g ai/ha, 0 to 100 scale, 0 no effect, 100 complete control
[32] = 500 g ai/ha, visual rating after 10 days, 0 to 100 scale (0 no effect, 100 complete control)
[33] = Postemergence, 500 g ai/ha, visual 0 to 100 scale (0 no effect, 100 complete control)

CCC(O)(CC)c1ncn(-c2ccc(C)c(C(=O)N3C[C@H](C)Oc4c(Cl)cccc43)c2)n1 [Compound 180]
Plant response rating, Barnyardgrass [1, 28]: 0 | Barnyardgrass plant response rating [1, 29]: 60 | Plant response rating, Blackgrass [2, 28]: 0 | Blackgrass plant response rating [2, 29]: 20 | Plant response rating, Corn [3, 28]: 0 | Corn plant response rating [3, 29]: 0 | Plant response rating, Foxtail, Green [4, 28]: 30 | Foxtail, Green plant response rating [4, 29]: 70 | Plant response rating, Kochia [5, 28]: 0 | Kochia plant response rating [5, 29]: 0 | Plant response rating, Oat, Wild [6, 28]: 0 | Oat, Wild plant response rating [6, 29]: 50 | Plant response rating, Pigweed, Palmer [7, 28]: 0 | Pigweed, Palmer plant response rating [7, 29]: 60 | Plant response rating, Ragweed [8, 28]: 0 | Ragweed plant response rating [8, 29]: 20 | Plant response rating, Soybean [9, 28]: 0 | Soybean plant response rating [9, 29]: 50 | Plant response rating, Wheat [10, 28]: 0 | Wheat plant response rating [10, 29]: 0 | Plant response rating, Barnyardgrass [11, 30]: 20 | Plant response rating, Barnyardgrass [11, 31]: 10 | Plant response rating, Blackgrass [12, 30]: 10 | Plant response rating, Blackgrass [12, 31]: 0 | Plant response rating, Corn [13, 30]: 10 | Plant response rating, Corn [13, 31]: 0 | Plant response rating, Foxtail, Green [14, 30]: 20 | Plant response rating, Foxtail, Green [14, 31]: 10 | Plant response rating, Kochia [15, 30]: 50 | Plant response rating, Kochia [15, 31]: 30 | Plant response rating, Oat, Wild [16, 30]: 70 | Plant response rating, Oat, Wild [16, 31]: 0 | Plant response rating, Pigweed, Palmer [17, 30]: 70 | Plant response rating, Pigweed, Palmer [17, 31]: 30 | Plant response rating, Ragweed [18, 30]: 60 | Plant response rating, Ragweed [18, 31]: 40 | Plant response rating, Ryegrass, Italian [19, 30]: 50 | Plant response rating, Ryegrass, Italian [19, 31]: 0 | Plant response rating, Soybean [20, 30]: 100 | Plant response rating, Soybean [20, 31]: 90 | Plant response rating, Wheat [21, 30]: 20 | Plant response rating, Wheat [21, 31]: 10 | Plant response rating, Galium [22, 30]: 90 | Plant response rating, Galium [22, 31]: 70 | Plant response rating, Horseweed [23, 30]: 0 | Plant response rating, Horseweed [23, 31]: 0 | Plant response rating, Barnyardgrass (Flood) [24]: 0 | Plant response rating, Ducksalad (Flood) [25]: 65 | Plant response rating, Rice (Flood) [26]: 0 | Plant response rating, Sedge, Umbrella (Flood) [27]: 40

CCc1c(C)cc(-n2cnc(C(C)C)n2)cc1C(=O)N1C[C@H](C)Oc2c(Cl)cccc21 [Compound 179]
Plant response rating, Barnyardgrass [1, 32]: 0 | Barnyardgrass plant response rating [1, 29]: 0 | Plant response rating, Blackgrass [2, 32]: 0 | Blackgrass plant response rating [2, 29]: 0 | Plant response rating, Corn [3, 32]: 0 | Corn plant response rating [3, 29]: 0 | Plant response rating, Foxtail, Green [4, 32]: 50 | Foxtail, Green plant response rating [4, 29]: 0 | Plant response rating, Kochia [5, 32]: 0 | Kochia plant response rating [5, 29]: 0 | Plant response rating, Oat, Wild [6, 32]: 0 | Oat, Wild plant response rating [6, 29]: 0 | Plant response rating, Pigweed, Palmer [7, 32]: 10 | Pigweed, Palmer plant response rating [7, 29]: 0 | Plant response rating, Ragweed [8, 32]: 0 | Ragweed plant response rating [8, 29]: 0 | Plant response rating, Soybean [9, 32]: 0 | Soybean plant response rating [9, 29]: 0 | Plant response rating, Wheat [10, 32]: 0 | Wheat plant response rating [10, 29]: 0 | Plant response rating, Barnyardgrass [11, 30]: 10 | Plant response rating, Barnyardgrass [11, 33]: 10 | Plant response rating, Blackgrass [12, 30]: 0 | Plant response rating, Blackgrass [12, 33]: 0 | Plant response rating, Corn [13, 30]: 0 | Plant response rating, Corn [13, 33]: 10 | Plant response rating, Foxtail, Green [14, 30]: 10 | Plant response rating, Foxtail, Green [14, 33]: 20 | Plant response rating, Kochia [15, 30]: 30 | Plant response rating, Kochia [15, 33]: 30 | Plant response rating, Oat, Wild [16, 30]: 0 | Plant response rating, Oat, Wild [16, 33]: 0 | Plant response rating, Pigweed, Palmer [17, 30]: 10 | Plant response rating, Pigweed, Palmer [17, 33]: 60 | Plant response rating, Ragweed [18, 33]: 10 | Plant response rating, Ryegrass, Italian [19, 30]: 0 | Plant response rating, Ryegrass, Italian [19, 33]: 20 | Plant response rating, Soybean [20, 33]: 40 | Plant response rating, Wheat [21, 30]: 10 | Plant response rating, Wheat [21, 33]: 10 | Plant response rating, Galium [22, 30]: 50 | Plant response rating, Galium [22, 33]: 90 | Plant response rating, Horseweed [23, 30]: 0 | Plant response rating, Horseweed [23, 33]: 40 | Plant response rating, Barnyardgrass (Flood) [24]: 0 | Plant response rating, Ducksalad (Flood) [25]: 0 | Plant response rating, Rice (Flood) [26]: 0 | Plant response rating, Sedge, Umbrella (Flood) [27]: 0

CSCc1ncn(-c2ccc(C)c(C(=O)N3C[C@H](C)Oc4c(Cl)cccc43)c2)n1 [Compound 178]
Plant response rating, Barnyardgrass [1, 32]: 90 | Barnyardgrass plant response rating [1, 29]: 20 | Plant response rating, Blackgrass [2, 32]: 90 | Blackgrass plant response rating [2, 29]: 60 | Plant response rating, Corn [3, 32]: 50 | Corn plant response rating [3, 29]: 20 | Plant response rating, Foxtail, Green [4, 32]: 100 | Foxtail, Green plant response rating [4, 29]: 100 | Plant response rating, Kochia [5, 32]: 100 | Kochia plant response rating [5, 29]: 90 | Plant response rating, Oat, Wild [6, 32]: 90 | Oat, Wild plant response rating [6, 29]: 30 | Plant response rating, Pigweed, Palmer [7, 32]: 100 | Pigweed, Palmer plant response rating [7, 29]: 90 | Plant response rating, Ragweed [8, 32]: 50 | Ragweed plant response rating [8, 29]: 0 | Plant response rating, Soybean [9, 32]: 80 | Soybean plant response rating [9, 29]: 60 | Plant response rating, Wheat [10, 32]: 70 | Wheat plant response rating [10, 29]: 30 | Plant response rating, Barnyardgrass [11, 30]: 10 | Plant response rating, Barnyardgrass [11, 33]: 60 | Plant response rating, Blackgrass [12, 30]: 60 | Plant response rating, Blackgrass [12, 33]: 90 | Plant response rating, Corn [13, 30]: 60 | Plant response rating, Corn [13, 33]: 90 | Plant response rating, Foxtail, Green [14, 30]: 20 | Plant response rating, Foxtail, Green [14, 33]: 90 | Plant response rating, Kochia [15, 30]: 80 | Plant response rating, Kochia [15, 33]: 90 | Plant response rating, Oat, Wild [16, 30]: 30 | Plant response rating, Oat, Wild [16, 33]: 90 | Plant response rating, Pigweed, Palmer [17, 30]: 90 | Plant response rating, Pigweed, Palmer [17, 33]: 90 | Plant response rating, Ragweed [18, 30]: 60 | Plant response rating, Ragweed [18, 33]: 90 | Plant response rating, Ryegrass, Italian [19, 30]: 80 | Plant response rating, Ryegrass, Italian [19, 33]: 100 | Plant response rating, Soybean [20, 30]: 100 | Plant response rating, Soybean [20, 33]: 100 | Plant response rating, Wheat [21, 30]: 20 | Plant response rating, Wheat [21, 33]: 50 | Plant response rating, Galium [22, 30]: 100 | Plant response rating, Galium [22, 33]: 100 | Plant response rating, Horseweed [23, 30]: 70 | Plant response rating, Horseweed [23, 33]: 90 | Plant response rating, Barnyardgrass (Flood) [24]: 15 | Plant response rating, Ducksalad (Flood) [25]: 95 | Plant response rating, Rice (Flood) [26]: 15 | Plant response rating, Sedge, Umbrella (Flood) [27]: 90
